Laboratory results as given in publication PMC10115881, “Disrupting the α-synuclein-ESCRT interaction with a peptide inhibitor mitigates neurodegeneration in preclinical models of Parkinson’s disease” (Nature Communications, 2023).

What was measured:
[1] = test system: endolysosomal flux in HEK293 cells; experiment: Endolysosomal flux assay, flow cytometry, HEK293 cells; format: cell-based, human; details: A53T a-syn
Method: Flux via the endolysosomal pathway was measured with the Lysosome Intracellular Activity Assay Kit which was purchased from Abcam (ab234622) and used according to the manufacturer’s instructions. The kit provides a proprietary lysosome-specific self-quenched substrate which has low background fluorescence, high signal-to-background ratio, and is pH insensitive. In the assay, the substrate is taken up by cells and acts as endocytic cargo which is degraded within an endolysosomal vesicle. Following degradation, the fluorescence signal recovered from the substrate is proportional to the intracellular lysosomal activity. The activity can be measured by fluorescence microscopy or FACS. The assay was performed with HEK293T cells or SNCA triplication fibroblasts (obtained from NINDS Human Genetics Resource Center DNA and Cell Line Repository; NINDS Repository sample number ND27760). Cells were maintained in DMEM supplemented with 10% FBS and 1% pen/strep/glutamine. Cell medium was replaced with fresh medium containing DMSO, Leupeptin, or Bafilomycin A1 and incubated for 1 h at 37 °C with 5% CO2. Self-quenched substrate was added into each condition and incubated for 1 h (HEK293T cells) or overnight (SNCA triplication fibroblasts) at 37 °C with 5% CO2. […] For HEK293T cells, cells were resuspended in PBS containing DMSO or Leupeptin and analyzed by FACS. […]

[2] = test system: a-syn oligomers in iPSC-derived dopaminergic neurons; experiment: a-syn oligomer (Syn-O2) fluorescence in iPSC-derived dopaminergic neurons; format: cell-based, human; details: A53T a-syn iPSC-derived dopaminergic neurons
From the text: Further, we used an antibody that has a high binding affinity for oligomeric a-syn and recognizes early soluble oligomers and late fibrils of a-syn (Syn-O2)[54]. This antibody detects these a-syn conformations in cerebrospinal fluid[55] and brain tissue[54] from PD patients. Levels of these a-syn conformations were increased in A53T a-syn neurons (Fig. 6G, H). Further, LAMP1 levels were reduced in A53T a-syn neurons (Fig. 6D, F).
A53T a-syn iCell Dopa neurons (catalog #R1109) and isogenic control iCell Dopa neurons (catalog #R1088) were purchased from Fujifilm Cellular Dynamics (Madison, WI, USA) and cultured as per the manufacturer’s instructions. […]
Confocal images of immunofluorescent staining were acquired with a Zeiss LSM880 confocal microscope equipped with 405, 488, 555, and 639 nm laser lines. All images were taken within the linear range at constant gain and pinhole settings at optimal resolution settings determined by the software. […]
Confocal images of primary cortical neurons, iPSC-derived dopaminergic neurons, and LAMP1 staining within the SN were processed using Imaris software (Oxford instruments). […] Mean pixel intensity per GFP^+ cell (for experiments using GFP-tagged peptides) or RFP^+ cell (for experiments using RFP-tagged peptides) was calculated for a-syn or LAMP1 signal using the software’s surfaces module. […]

DEEIERQLKALG [PDpep1.3]
Effect on endolysosomal flux [1]: returned the fluorescent signal to baseline | Effect on oligomeric a-syn, iPSC neurons [2]: returned levels of a-syn, including oligomeric a-syn, as well as LAMP1 levels to those of isogenic controls
